These compounds were tested on HCV 1b genotype (assay: HCV replicon assay (HCV-neo replicon cells, wild-type)). Conditions: Hepatitis C virus, HCV 1b genotype replicon; class symbol; read-out: EC50 Range against HCV 1b.
Type: cell-based, Hepatitis C virus
Summary of the method: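 HCV-neo replicon cells (wild-type) and replicon cells carrying NS5A resistance substitutions were treated with compounds; assay per O'Boyle et al. 2005, with luciferase-reporter read-out variants also used.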
CC(=O)N1CCC[C@H]1C(=O)Nc1ccc(-c2nc(-c3ccc(NC(=O)[C@@H]4C=CCN4C(=O)c4ccccc4)cc3)cs2)cc1 [Example D-53, (2S)-N-[4-[2-[4-[[[(2S)-1-acetyl-2-pyrrolidinyl]carbonyl]amino]phenyl]-4-thiazolyl]phenyl]-1-benzoyl-2,5-dihydro-1H-pyrrole-2-carboxamide] gave an EC50 of 1000 to 10000 nM.
O=C(Nc1ccc(-c2nnc(-c3ccc(NC(=O)[C@H]4CCCCN4C(=O)OCc4ccccc4)cc3)o2)cc1)[C@H]1CCCCN1C(=O)OCc1ccccc1 [RK-5, dibenzyl (2R,2′R)-2,2′-(1,3,4-oxadiazole-2,5-diylbis(4,1-phenylenecarbamoyl))di(1-piperidinecarboxylate)] gave an EC50 of 1000 to 10000 nM.
O=C(Cc1ccccc1)NC1(C(=O)Nc2ccc(-c3cnc(-c4ccc(NC(=O)C5(NC(=O)Cc6ccccc6)CC5)cc4)o3)cc2)CC1 [JG-18, N,N′-(1,3-oxazole-2,5-diyldi-4,1-phenylene)bis(1-((phenylacetyl)amino)cyclopropanecarboxamide)] showed an EC50 of 1000 to 10000 nM.
With O=C(C(=O)N1CCC[C@H]1C(=O)Nc1ccc(-c2nc[nH]c2-c2ccc(NC(=O)[C@@H]3CCCN3C(=O)C(=O)c3ccccc3)cc2)cc1)c1ccccc1 [JG-42, (2S,2′S)-N,N′-(1H-imidazole-4,5-diyldi-4,1-phenylene)bis(1-(oxo(phenyl)acetyl)-2-pyrrolidinecarboxamide)] the EC50 was under 4.57 nM.
COc1cc(C(=O)N[C@@H](C)C(=O)Nc2ccc(-c3nnc(-c4ccc(NC(=O)[C@H](C)NC(=O)c5cc(OC)c6ccccc6n5)cc4)o3)cc2)nc2ccccc12 [RK-22, N,N′-(1,3,4-oxadiazole-2,5-diylbis(4,1-phenyleneimino((2S)-1-oxo-1,2-propanediyl)))bis(4-methoxy-2-quinolinecarboxamide)] showed an EC50 of 100 to 999 nM.
CC(=O)N1CCC[C@H]1C(=O)Nc1ccc(-c2cc(-c3ccc(NC(=O)[C@@H]4CCCN4C(C)=O)cc3)n(C)n2)cc1 [FY-2, (2S,2′S)-N,N′-((1-methyl-1H-pyrazole-3,5-diyl)di-4,1-phenylene)bis(1-acetyl-2-pyrrolidinecarboxamide)] showed an EC50 of 1000 to 10000 nM.
In the case of C[C@](O)(C(=O)N1CCC[C@H]1C(=O)Nc1ccc(-c2ccc(-c3ccc(NC(=O)[C@@H]4CCCN4C(=O)[C@](C)(O)c4ccccc4)cc3)o2)cc1)c1ccccc1 [JG-58, (2S,2′S)-N,N′-(2,5-furandiyldi-4,1-phenylene)bis(1-((2R)-2-hydroxy-2-phenylpropanoyl)-2-pyrrolidinecarboxamide)], the EC50 is reported as 4.57 to 99 nM.
In the case of O=C(Nc1ccc(-c2cnc(-c3ccc(NC(=O)[C@@H]4CCCCN4C(=O)Cc4ccccc4)cc3)o2)cc1)[C@@H]1CCCCN1C(=O)Cc1ccccc1 [JG-6, (2S,2′S)-N,N′-(1,3-oxazole-2,5-diyldi-4,1-phenylene)bis(1-(phenylacetyl)-2-piperidinecarboxamide)], the EC50 is reported as 100 to 999 nM.

Same assay, conditions: Hepatitis C virus, HCV 1b genotype replicon; class symbols; read-out: EC50 Range against HCV 1b
CC(C)(C)O[C@@H]1C[C@@H](C(=O)Nc2ccc(-c3cnc(-c4ccc(NC(=O)[C@@H]5C[C@@H](OC(C)(C)C)CN5C(=O)Cc5cccnc5)cc4)o3)cc2)N(C(=O)Cc2cccnc2)C1 [XY-62, (2S,4R,2′S,4′R)-N,N′-(1,3-oxazole-2,5-diyldi-4,1-phenylene)bis(4-tert-butoxy-1-(3-pyridinylacetyl)-2-pyrrolidinecarboxamide)] was tested, and the EC50 was 4.57 to 99 nM.
For Cc1noc(C)c1C(=O)N1C[C@H](OC(C)(C)C)C[C@H]1C(=O)Nc1ccc(-c2cnc(-c3ccc(NC(=O)[C@@H]4C[C@@H](OC(C)(C)C)CN4C(=O)c4c(C)noc4C)cc3)o2)cc1 [XY-72, (2S,4R,2′S,4′R)-N,N′-(1,3-oxazole-2,5-diyldi-4,1-phenylene)bis(4-tert-butoxy-1-((3,5-dimethyl-4-isoxazolyl)carbonyl)-2-pyrrolidinecarboxamide)], the EC50 was 100 to 999 nM.
Work on COCCOCC(=O)N1CCC[C@H]1C(=O)Nc1ccc(-c2cnc(-c3ccc(NC(=O)[C@@H]4CCCN4C(=O)COCCOC)cc3)o2)cc1 [XY-8, (2S,2′S)-N,N′-(1,3-oxazole-2,5-diyldi-4,1-phenylene)bis(1-((2-methoxyethoxy)acetyl)-2-pyrrolidinecarboxamide)] yielded an EC50 of 1000 to 10000 nM.

Same assay, conditions: Hepatitis C virus, HCV 1b genotype replicon; read-out: EC50 1b
For CC(=O)N1CCC[C@H]1C(=O)Nc1ccc(-c2nc(-c3ccc(NC(=O)[C@@H]4C=CCN4C(=O)c4ccccc4)cc3)cs2)cc1 [Example D-53, (2S)-N-[4-[2-[4-[[[(2S)-1-acetyl-2-pyrrolidinyl]carbonyl]amino]phenyl]-4-thiazolyl]phenyl]-1-benzoyl-2,5-dihydro-1H-pyrrole-2-carboxamide], the EC50 was 1130 nM.
